Target: T1, ORAI1 (Homo sapiens, UniProt Q96D31)
T1 construct: with STIM1 (human, co-expressed)
Test: whole-cell patch clamp of ICRAC in HEK […] cells stably expressing hORAI1/hSTIM1
Assay type: cell-based

T1 sequence (Q96D31 whole entry): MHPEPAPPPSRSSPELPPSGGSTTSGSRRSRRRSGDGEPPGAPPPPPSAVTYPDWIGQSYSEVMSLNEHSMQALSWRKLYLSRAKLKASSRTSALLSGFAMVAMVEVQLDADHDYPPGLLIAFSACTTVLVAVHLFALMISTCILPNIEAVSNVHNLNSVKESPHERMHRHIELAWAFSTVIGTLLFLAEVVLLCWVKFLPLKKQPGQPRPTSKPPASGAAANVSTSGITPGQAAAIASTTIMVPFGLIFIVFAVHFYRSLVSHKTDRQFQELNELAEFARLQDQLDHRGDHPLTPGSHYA
T1 sequence (Q13586 23-685 partner): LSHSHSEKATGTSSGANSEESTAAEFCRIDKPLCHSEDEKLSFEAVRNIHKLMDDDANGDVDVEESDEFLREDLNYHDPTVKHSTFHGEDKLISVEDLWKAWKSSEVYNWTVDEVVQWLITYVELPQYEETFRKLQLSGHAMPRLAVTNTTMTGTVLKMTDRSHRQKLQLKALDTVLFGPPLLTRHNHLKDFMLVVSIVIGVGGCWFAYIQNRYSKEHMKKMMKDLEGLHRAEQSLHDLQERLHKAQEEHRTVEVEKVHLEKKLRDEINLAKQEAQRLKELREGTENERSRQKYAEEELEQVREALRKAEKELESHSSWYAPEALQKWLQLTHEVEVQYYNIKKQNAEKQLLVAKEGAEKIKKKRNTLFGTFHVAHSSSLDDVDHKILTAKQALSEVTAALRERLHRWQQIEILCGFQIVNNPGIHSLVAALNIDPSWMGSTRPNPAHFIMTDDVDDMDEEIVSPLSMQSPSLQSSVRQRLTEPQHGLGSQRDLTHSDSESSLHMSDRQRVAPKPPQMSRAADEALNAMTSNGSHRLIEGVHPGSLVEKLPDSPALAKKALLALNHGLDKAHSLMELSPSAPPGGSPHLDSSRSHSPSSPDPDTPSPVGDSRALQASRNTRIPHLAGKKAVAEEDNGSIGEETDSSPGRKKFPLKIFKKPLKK

- IC50: ~100 nM
SMILES: Cc1cccc(F)c1C(=O)Nc1cnc(-c2cc3c(cc2Cl)OC(F)(F)O3)cn1 [CM_128]
